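Five concentrations, 48 hours, 96-well plates. GI50: concentration for 50% inhibition of growth. TGI: total growth inhibition.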
Key:
Assay in all cases: NCI tumour cell line growth inhibition, 48 h
HCT-116 colon = test system: HCT-116 colon
HT29 colon = test system: HT29 colon
NCI-H226 lung = test system: NCI-H226 lung
NCI/ADR-RES ovarian = test system: NCI/ADR-RES ovarian
RXF 393 renal = test system: RXF 393 renal
SF-268 CNS = test system: SF-268 CNS
SK-MEL-5 melanoma = test system: SK-MEL-5 melanoma
SR leukemia = test system: SR leukemia
U251 CNS = test system: U251 CNS
UACC-257 melanoma = test system: UACC-257 melanoma

SMILES | TGI (HCT-116 colon) [nM] | TGI (HT29 colon) [nM] | TGI (NCI-H226 lung) [nM] | TGI (NCI/ADR-RES ovarian) [nM] | TGI (RXF 393 renal) [nM] | TGI (SF-268 CNS) [nM] | TGI (SK-MEL-5 melanoma) [nM] | TGI (SR leukemia) [nM] | TGI (U251 CNS) [nM] | TGI (UACC-257 melanoma) [nM] | GI50 (HCT-116 colon) [nM] | GI50 (HT29 colon) [nM] | GI50 (NCI-H226 lung) [nM] | GI50 (NCI/ADR-RES ovarian) [nM] | GI50 (RXF 393 renal) [nM] | GI50 (SF-268 CNS) [nM] | GI50 (SK-MEL-5 melanoma) [nM] | GI50 (SR leukemia) [nM] | GI50 (U251 CNS) [nM] | GI50 (UACC-257 melanoma) [nM]
COc1ccc2c3c1OC1C4(CCC5C(C2)N(CC2CC2)CCC351)OCCO4 (centres undefined) | > 100000 | > 100000 | > 100000 | > 100000 | > 100000 | > 100000 | > 100000 | > 100000 | > 100000 | > 100000 | – | – | – | – | – | – | – | – | – | –
CC(=O)OCCC/C(=C/c1cc2ccccc2c2ccccc12)[N+](=O)[O-] | 2800 | 3720 | 5630 | 4310 | 2910 | 2890 | 2960 | 4580 | 2740 | 2760 | 1480 | 1970 | 2040 | 1990 | 1400 | 1470 | 1610 | 495 | 1430 | 1430
COc1ccc(/C=N/C2=NNC(C)(c3ccccc3O)N2C(Cc2c[nH]c3ccccc23)C(=O)O)cc1 (centres undefined) | 10200 | 9510 | 10300 | 14000 | 6260 | 13800 | 3090 | 12400 | 11600 | 10800 | 2520 | 2360 | 2160 | 2760 | 1270 | 3110 | 1660 | 2760 | 3440 | 3530
COC(=O)C(Br)(C(=O)OC)C(Br)C(Br)C(Br)c1ccccc1 (centres undefined) | 3010 | 3340 | 5710 | 9990 | 3260 | 16500 | 7270 | 9710 | 10600 | 4400 | 1610 | 1800 | 2190 | 3280 | 1720 | 5500 | 2710 | 2800 | 3990 | 1880
CSc1ccc(NC(=O)CCl)cc1 | > 10000 | > 10000 | > 10000 | > 10000 | > 10000 | > 10000 | 3630 | > 10000 | > 10000 | > 10000 | – | – | – | – | – | – | – | – | – | –
COc1ccc(-n2nc(C(=O)NCC(=O)Nc3nc4cc(OC)ccc4s3)c3ccccc3c2=O)cc1 | > 100000 | 1780 | 7500 | – | 2070 | 5010 | > 42700 | > 100000 | 1730 | 5070 | 1640 | 441 | 1480 | 1350 | 698 | 949 | 1550 | > 20500 | 448 | 1280
O=C1Nc2cc(-c3ccc(O)cc3)ccc2/C1=C/c1ccc[nH]1 | > 100000 | > 33800 | > 100000 | > 100000 | 2450 | > 100000 | > 100000 | > 33700 | > 100000 | > 100000 | 115 | 979 | 673 | 251 | 826 | 440 | 412 | 30.9 | 526 | 743
NC1=C(/C(N)=N/O)C(c2ccccc2)c2ccc3ccccc3c2O1 (centres undefined) | 30700 | > 100000 | 77100 | 1650 | 929 | > 72600 | 9790 | > 100000 | 19800 | > 100000 | 444 | 1160 | 8010 | 57.8 | 249 | 1090 | 369 | 239 | 410 | 25100
COc1cc(NC(=O)c2cc3ccccc3cc2O)c(OC)cc1Cl | 11100 | 19800 | 6040 | 6030 | 8010 | 14400 | 2930 | 14700 | 5230 | 5550 | 2480 | 2890 | 1450 | 1990 | 2240 | 3420 | 1380 | 2020 | 1870 | 2050
